Each block holds one molecule with its values, some of them ahead of it.
Tests used:
Type in all cases: physicochemical
[1] = Hydrolysis of ClickZip conjugates with model hexapeptide in HCl; details: 0.5 mM conjugate in 2 M HCl at 80 °C; HPLC 285 nm; Y value after 4 d
Experimental: While the acid-assisted dechelation of lanthanide DOTA chelates proceeds with a rate similar to hydrolysis of a peptide bond[24], the ultra-inert ClickZip chelates of Lu^III and near lanthanides should outlast complete hydrolysis of peptides and proteins. To test this, we prepared model hexapeptide conjugates with two ClickZip derivatives, HO2CPh{Ln} or HO2CBn{Ln}, which differed in their amide linkage to the peptide N-end (Fig. 6). Hydrolysis in 2 M HCl at 80 °C digested the peptide to individual amino acids; the chelates were cleaved from the peptide with no loss of the metal (Lu^III or Tm^III), or only small loss (5% for Y^III chelate).
Fig. 6 ClickZip and peptide bond stability comparison. Hydrolysis of ClickZip conjugates with model hexapeptide AYFHVG-NH2 connected by either aromatic or aliphatic amide bonds in strong acid. Conditions: 0.5 mM {Ln}PhCO-AYFHVG-NH2 or {Ln}BnCO-AYFHVG-NH2 in 2 M HCl at 80 °C. Analysis: λ = 285 nm (HPLC, H2O–MeCN, formic acid additive). […] The hydrolysis is faster for {Ln}BnCO-AYFHVG-NH2 species connected to the peptide via aliphatic amide moiety (n = 1) where HO2CBn{Ln} is formed quantitatively after 1 d. […] Nevertheless, prolonged reaction time led to quantitative formation of HO2CPh{Ln}. […]

[2] = Epimerization of BocCys{Lu} diastereomers followed by 1H NMR; details: Supp. Fig. 22B, chirality inversion
Text: The ClickZip chelates are inherently chiral, with defined rotation of the pendant arms (Λ or Δ) and of the four ethylene units in the cyclen ring (λλλλ or δδδδ), analogous to the DOTA system[15],[27],[34]. However, in contrast to DOTA, they only adopt enantiomeric Λλλλλ and Δδδδδ forms with twisted-square antiprismatic (TSA) arrangements (Fig. 4). To probe whether these enantiomers can interconvert, we modified {Lu} with L-cysteine residues to produce a pair of distinguishable diastereomers. […] The enantiomers of {M} can thus be regarded either as one or two compounds, depending on the time scale.
Fig. 4 Chirality of ClickZip chelates. Inherent chirality of the molecules is given by rotation of the pendant arms (Λ or Δ) and of the four ethylene units in the cyclen ring (λλλλ or δδδδ). In theory, four isomers are possible: two twisted square antiprismatic (TSA) enantiomers (Λλλλλ and Δδδδδ), and two square antiprismatic (SA) enantiomers (Δλλλλ and Λδδδδ). The ClickZip chelates exclusively adopt the TSA arrangements Λλλλλ and Δδδδδ, which were observed together in all solid-state structures as well as in solution. These two forms interconvert on the time scale of hours at 37 °C (Supplementary Fig. 22). Both enantiomers shown here were found in the crystal structure of [{Lu}]^+[ClO4]^−·5H2O. Thermal ellipsoids were set at 50% probability.
Supplementary Fig. 97. Synthesis of BocCys {Lu} and its epimer separation. In a glass vial (4 mL), [Cl{Lu}] +[T FA ]−·5.1H2O (4.0 mg; 4.2 µmol; 1.0 equiv.) was dissolved in DMSO (160 µL) followed by addition of N-Boc-cysteine (200 mM in DMSO; 31 µL; 6.2 µmol; 1.5 equiv.) and DIPEA (7.3 µL; 42 µmol; 10 equiv.) and the resulting solution was stirred for 16 h at 40 °C. Mixture (containing racemic mixture of BocCys {Lu} epimers) was then diluted with DMSO (0.5 mL) and filtered through syringe microfilter (RC). Filtrate was then directly purified by preparative HPLC […]
Fractions with epimer A (front part of the first eluting peak) and B (latter part of the second eluting peak) were quickly freezed and directly lyophilized. The resulting solids were dissolved in 500 μL of deuterated 50 mM MOPS/NaOD buffer (formal pH 7.4; obtained from MOPS/NaOH buffer of such pH by multiple evaporation/D2O resupply cycles). Epimer A (obtained in slightly higher epimeric purity than epimer B) was used for continuous 1H NMR epimerization study at 37 °C (Supplementary Fig. 22) while epimer B was incubated concurrently under identical conditions on heated magnetic stirrer. Conversion: ≥95% (based on Cl {Lu}).

[3] = Kinetic inertness: acid-assisted dechelation in excess HCl

Molecule: {Y}PhCO-AYFHVG-NH2 [model hexapeptide conjugate with {Y} tag, aromatic amide]
- loss (leak) of metal ion during hydrolysis of hexapeptide conjugate [1]: ~ 5%

- abundance, % of epimer ([2]; 0.757 h): 89.6%
- abundance, % of epimer ([2]; 0.913 h): 83.6%
- abundance, % of epimer ([2]; 1.220 h): 84.0%
- abundance, % of epimer ([2]; 1.376 h): 90.7%
- abundance, % of epimer ([2]; 1.532 h): 83.1%
- abundance, % of epimer ([2]; 1.735 h): 83.8%
- abundance, % of epimer ([2]; 1.891 h): 74.9%
- abundance, % of epimer ([2]; 2.467 h): 74.2%
- abundance, % of epimer ([2]; 2.641 h): 78.5%
- abundance, % of epimer ([2]; 2.985 h): 70.9%
- abundance, % of epimer ([2]; 3.611 h): 62.0%
- abundance, % of epimer ([2]; 4.238 h): 64.6%
- abundance, % of epimer ([2]; 4.864 h): 63.0%
- abundance, % of epimer ([2]; 5.489 h): 63.7%
- abundance, % of epimer ([2]; 6.704 h): 52.8%
- abundance, % of epimer ([2]; 7.918 h): 58.7%
- abundance, % of epimer ([2]; 9.132 h): 55.2%
- abundance, % of epimer ([2]; 10.346 h): 50.5%
- abundance, % of epimer ([2]; 11.560 h): 49.5%
- abundance, % of epimer ([2]; 12.775 h): 50.6%
- abundance, % of epimer ([2]; 13.988 h): 49.2%
- abundance, % of epimer ([2]; 17.779 h): 50.3%
Molecule: O=C(CN1CC2CC(=O)Nc3cccc1c32)Nc1ccc2c(c1)C[C@]1(C2)C(=O)Nc2ncccc21 (single isomer, unassigned) [epimer A]

- half-life ([3]; Figure 2A, 0.1 M HCl, 25 °C): 2.48 h
- half-life, h ([3]; Figure 2A, 0.1 M HCl, 80 °C): too unstable
- half-life, h ([3]; Figure 2A, 1.0 M HCl, 80 °C): too unstable
- half-life, h ([3]; Figure 2A, 6.0 M HCl, 80 °C): too unstable
- t½ (0.1 M HCl, 80 °C) ([3]; dechelation half-life, 0.5 mM chelate in 0.1 M HCl, 80 °C, HPLC-UV after 1 h, 1 day, 1 week, 1 month, exponential decay fit, ± error of the fit): too unstable
- t½ (1.0 M HCl, 80 °C) ([3]; dechelation half-life, 0.5 mM chelate in 1.0 M HCl, 80 °C, HPLC-UV after 1 h, 1 day, 1 week, 1 month, exponential decay fit, ± error of the fit): too unstable
- t½ (6.0 M HCl, 80 °C) ([3]; dechelation half-life, 0.5 mM chelate in 6.0 M HCl, 80 °C, HPLC-UV after 1 h, 1 day, 1 week, 1 month, fit y = exp(−x/t), t½ = ln(2) × t, ± error of the fit): too unstable
Molecule: O=C([O-])CN1CCN2CCN(CC(=O)[O-])CCN(CC1)Cc1cccc(n1)-c1cnnn1Cc1cc(-c3ccccc3)cc(n1)C2.[La+3] [Ph{La}]
